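Cells were grown in 96-well plates and exposed to each compound for 48 hours at five concentrations; endpoints were interpolated linearly between bracketing concentrations, or set to the highest concentration if not reached. GI50 marks 50% less growth. TGI denotes the concentration required for complete inhibition of growth.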
Tests used:
Assay in all cases: NCI anticancer screen, dose series, 48 h
DMS 273 small cell lung = tested on: DMS 273 small cell lung
SK-MEL-2 melanoma = tested on: SK-MEL-2 melanoma
SW-620 colon = tested on: SW-620 colon
MOLT-4 leukemia = tested on: MOLT-4 leukemia
HOP-92 NSCLC = tested on: HOP-92 NSCLC
HCC-2998 colon = tested on: HCC-2998 colon
NCI-H23 lung = tested on: NCI-H23 lung
TK-10 renal = tested on: TK-10 renal
A498 renal = tested on: A498 renal
HOP-18 NSCLC = tested on: HOP-18 NSCLC

| SMILES | TGI (DMS 273 small cell lung) | TGI (SK-MEL-2 melanoma) | TGI (SW-620 colon) | TGI (MOLT-4 leukemia) | TGI (HOP-92 NSCLC) | TGI (HCC-2998 colon) | TGI (NCI-H23 lung) | TGI (TK-10 renal) | TGI (A498 renal) | TGI (HOP-18 NSCLC) | GI50 (DMS 273 small cell lung) | GI50 (SK-MEL-2 melanoma) | GI50 (SW-620 colon) | GI50 (MOLT-4 leukemia) | GI50 (HOP-92 NSCLC) | GI50 (HCC-2998 colon) | GI50 (NCI-H23 lung) | GI50 (TK-10 renal) | GI50 (A498 renal) |
| --- | --- | --- | --- | --- | --- | --- | --- | --- | --- | --- | --- | --- | --- | --- | --- | --- | --- | --- | --- |
| Cc1cccc(NC(=O)c2cccc([N+](=O)[O-])c2O)c1C | 97.7 µM | 46.9 µM | > 100 µM | > 92.7 µM | 49.7 µM | > 100 µM | 62.9 µM | > 100 µM | > 100 µM | > 100 µM | – | – | – | – | – | – | – | – | – |
| COc1ccccc1NC(=O)CC(=O)N/N=C/c1ccc(N(CCC#N)S(=O)(=O)c2ccccc2)cc1 | – | > 100 µM | > 100 µM | > 100 µM | > 100 µM | > 100 µM | > 100 µM | > 100 µM | – | > 100 µM | – | – | – | – | – | – | – | – | – |
| O=C(NC12CC3CC(CC(C3)C1)C2)C(=O)c1c[nH]c2ccccc12 | 29.6 µM | 32.3 µM | – | 43.2 µM | 28.8 µM | 28 µM | 29.6 µM | 44.5 µM | – | – | – | – | – | – | – | – | – | – | – |
| COc1cccc(NC(=O)/C(Cc2nc3ccccc3nc2C)=N/NC(=O)C[n+]2ccccc2)c1 | > 100 µM | > 100 µM | 25.6 µM | > 100 µM | – | > 100 µM | > 100 µM | > 100 µM | > 100 µM | > 100 µM | – | – | – | – | – | – | – | – | – |
| COc1ccc(OCC(=O)O)c(C(=O)CCC(=O)O)c1 | > 100 µM | > 100 µM | > 100 µM | > 100 µM | > 100 µM | > 100 µM | > 100 µM | > 100 µM | > 100 µM | – | – | – | – | – | – | – | – | – | – |
| COC(C)(C)C/C=C/C(C)=C/C=C/C(C)=C\C=C\C(C)=C\C=C\C=C(C)\C=C\C=C(C)\C=C\C=C(C)\C=C\CC(C)(C)OC | > 150 µg/mL | > 150 µg/mL | > 150 µg/mL | > 150 µg/mL | > 150 µg/mL | > 150 µg/mL | > 150 µg/mL | > 150 µg/mL | > 150 µg/mL | – | > 150 µg/mL | > 150 µg/mL | > 150 µg/mL | > 150 µg/mL | > 150 µg/mL | > 150 µg/mL | > 150 µg/mL | > 150 µg/mL | > 150 µg/mL |
| O=c1c2cc(Cl)ccc2sc2cccc(Cl)c12 | > 100 µM | > 100 µM | > 100 µM | > 100 µM | > 100 µM | – | > 100 µM | > 100 µM | > 100 µM | – | – | – | – | – | – | – | – | – | – |
| CCN(CC)c1ccc(N=Nc2ccc(-c3nc4ccc[n+](C)c4o3)cc2)cc1 | 23.3 µM | 25.5 µM | 16.2 µM | 16.2 µM | 33.4 µM | – | 28.6 µM | 24.7 µM | 35.9 µM | 38.3 µM | – | – | – | – | – | – | – | – | – |
| N#CC1CCCCCCCCCCC(=O)N(CCCl)C1=O (stereo not given) | > 100 µM | > 100 µM | > 100 µM | > 100 µM | > 100 µM | > 100 µM | > 100 µM | > 100 µM | > 100 µM | – | – | – | – | – | – | – | – | – | – |
| Cc1cc(C)cc(NC(N)=S)c1 | > 100 µM | > 100 µM | 18 µM | > 100 µM | > 100 µM | > 100 µM | > 100 µM | > 100 µM | > 100 µM | – | – | – | – | – | – | – | – | – | – |
| CC(=O)C1=C(O)CC2CC3c4[nH]c5ccccc5c4CCN3CC2C1 (stereo not given) | > 100 µM | > 100 µM | > 100 µM | 70.6 µM | – | > 100 µM | > 100 µM | > 100 µM | > 100 µM | > 100 µM | – | – | – | – | – | – | – | – | – |
